Activity calls are given as the source filed them.
Tests used:
Format in all cases: functional, cell-based
T-24 = assay: Cytotoxicity against human T24 cells assessed as reduction in cell viability at 50 uM incubated for 48 hrs by MTS assay
HeLa = assay: Cytotoxicity against human HeLa cells assessed as reduction in cell viability at 50 uM incubated for 48 hrs by MTS assay
SH-SY5Y = assay: Cytotoxicity against human SH-SY5Y cells assessed as reduction in cell viability at 50 uM incubated for 48 hrs by MTS assay
ACHN = assay: Cytotoxicity against human ACHN cells assessed as reduction in cell viability at 50 uM incubated for 48 hrs by MTS assay
HOS = assay: Cytotoxicity against human HOS cells assessed as reduction in cell viability at 50 uM incubated for 48 hrs by MTS assay
HepG2 = assay: Cytotoxicity against human HepG2 cells assessed as reduction in cell viability at 50 uM incubated for 48 hrs by MTS assay
A549 = assay: Cytotoxicity against human A549 cells assessed as reduction in cell viability at 50 uM incubated for 48 hrs by MTS assay

Measured: Activity

CC1=[N+]([O-])[C@](Cc2c[nH]c3ccccc23)([C@H]2CC(=O)[C@@H](C)OC(=O)/C=C/[C@@H](O)CC[C@@H](C)OC2=O)NC1=O
inactive: all assays above

CC1=[N+]([O-])[C@](Cc2c[nH]c3ccccc23)([C@H](CC(=O)[C@H](C)O)C(=O)O[C@@H](C)CC[C@@H]2C=CC(=O)O2)NC1=O
inactive: all assays above
